In article PMC10582582 (Saudi Pharmaceutical Journal : SPJ, 2023) one finds IC50 data, which are given here for five compounds.

The experiment concerns WI-38. As to the kind of experiment: In vitro cytotoxicity against normal cell line WI-38. The settings on record: Homo sapiens, WI-38, read-out: IC50 WI38. Type of experiment: cell-based.
What is called IC50 is the concentration needed to halve the response being measured. Regarding `CCN1CCC2(CC1)C/C(=N\N=C\c1ccc(N(C)C)cc1)c1ccccc1O2` [Compound 4c, 4-((E)-{(E)-[1′-Ethylspiro(chroman-2,4′-piperidin)-4-ylidene]hydrazono}methyl)-N,N-dimethylaniline], the IC50 came to 55.3 ± 3.3 µM.

With `CN1CCC2(CC1)C/C(=N\N=C\c1ccc(O)cc1)c1ccccc1O2` [Compound 4d, 4-((E)-{(E)-[1′-Methylspiro(chroman-2,4′-piperidin)-4-ylidene]hydrazono}methyl)phenol], the IC50 turned out to be 33.3 ± 2.3 µM.

Take `CN1CCC2(CC1)C/C(=N\N=C\c1ccc(N(C)C)cc1)c1ccccc1O2` [Compound 4b, N,N-Dimethyl-4-((E)-{(E)-[1′-methylspiro(chroman-2,4′-piperidin)-4-ylidene]hydrazono}methyl)aniline]: the IC50 was determined as 60.4 ± 3.7 µM.

Consider `CN(C)C/C=C/C(=O)Nc1cc2c(Nc3ccc(F)c(Cl)c3)ncnc2cc1O[C@H]1CCOC1` [Afatinib, reference compound], for which the IC50 worked out at 49.5 ± 2.5 µM.

As for `CN1CCC2(CC1)C/C(=N\N=C\c1ccc(Cl)cc1)c1ccccc1O2` [Compound 4a, (E)-4-[(E)-(4-Chlorobenzylidene)hydrazono]-1′-methylspiro(chroman-2,4′-piperidine)], the IC50 was 75.7 ± 4.3 µM.
